In general, melting point refers to the temperature of the solid-liquid transition.

Each structure is given as a SMILES string.

This is an account of results in patent US7122551B2, “Metalloproteinase inhibitor compounds” (AstraZeneca AB, priority 2000, dated 2006).

Data set [1] is described as follows: biological activity of separated enantiomers / diastereomers (test not specified). The note with it: enantiomers compared by order of elution; test and target not stated.

With `O=CN(O)C(CCc1ncc(F)cn1)CS(=O)(=O)N1CCN(c2ccc(Cl)cn2)CC1` (stereo not drawn) [Example 2, N-[1-([4-(5-chloropyridin-2-yl)piperazino]sulfonylmethyl)-3-(5-fluoropyrimidin-2-yl)propyl]-N-hydroxyformamide], the melting point lay within 154 to 155 °C. On to `O=CN(O)[C@@H](CCCc1ncccn1)CS(=O)(=O)N1CCN(c2ccc(Cl)cn2)CC1` [Example 4, N-[(1S)-1-({[4-(5-chloropyridin-2-yl)piperazino]sulfonyl}methyl)-4-(pyrimidin-2-yl)butyl]-N-hydroxyformamide], for which the melting point fell in the range of 124.5 to 126.5 °C. Take `O=CN(O)[C@@H](CCc1ncccn1)CS(=O)(=O)N1CCN(c2ccc(Cl)cn2)CC1` [Example 6 2nd enantiomer eluted, N-[(1S)-1-({[4-(5-chloropyridin-2-yl)piperazino]sulfonyl}methyl)-3-(pyrimidin-2-yl)propyl]-N-hydroxyformamide]: the “Biological activity of separated enantiomers” value in data set [1] is given as “Biological activity lies in the compound eluted second from the column”.
